Assay results from US20240226049A1, “METHODS OF TREATMENT USING BEMPEDOIC ACID” (Esperion Therapeutics, Inc., priority 2023, published 2024).
Values joined by “and” are separate entries in the source; they are usually repeats but may differ in a detail not shown here. Identical values can stand only once.

Assays:
[1] = system: primary prevention patients unable to tolerate recommended doses of statins; assay: CLEAR OUTCOMES primary prevention subgroup (Example 2): time-to-event efficacy end points; type: in vivo, human
Description: (§1) The rationale, design and methods of the CLEAR Outcomes trial is described in Example 1. The trial was conducted at 1250 sites in 32 countries and designed by the Cleveland Clinic Coordinating Center for Clinical Research (C5Research) and an academic Executive Committee in collaboration with the sponsor. The protocol was approved by ethics committees at participating sites and all patients provided written informed consent before enrollment. A contract research organization collected the data which were transferred to C5Research at completion of the trial whose statisticians conducted the analyses described herein. An independent Data Monitoring Committee monitored the trial.
(§2) Primary prevention patients 18 to 85 years of age with an LDL cholesterol ≥100 mg/dL with clinical features placing them at high risk for a first cardiovascular event were eligible. Criteria for high cardiovascular risk included risk scores, such as the Reynolds Risk Score and the SCORE project (Ridker et al., Development and validation of improved algorithms for the assessment of global cardiovascular risk in women: the Reynolds Risk Score, JAMA. 2007 Feb. 14; 297(6):611-9; Ridker et al., C-reactive protein and parental history improve global cardiovascular risk prediction. The Reynolds Risk Score for men, Circulation. 2008; 118: 2243-2251; European Guidelines on CVD Prevention in Clinical Practice. 2016. Eur J Prev Cardiol. 2016 July; 23(11):NP1-NP96), a coronary artery calcium score >400 Agatston units (AU) or presence of either type 1 or 2 diabetes in women aged >65 years or men older than 60 years.
(§3) Investigators were responsible for assessing the patient for statin intolerance. Patients had to report statin intolerance due to an adverse effect that started or increased during statin therapy and resolved or improved after statin therapy was discontinued. Entry criteria required inability to tolerate 2 or more statins at any dose or 1 statin and unwillingness to attempt a second statin or advised by a physician not to attempt taking a second statin. Both the patient and site investigator were required to provide written confirmation that the patient was statin intolerant and aware of the benefits of statins to reduce the risk of cardiovascular events, including death, and acknowledge that many patients who are unable to tolerate a statin can tolerate a different statin or dose. Patients could be enrolled if they tolerated a very low average daily statin dose defined as rosuvastatin <5 mg, atorvastatin <10 mg, simvastatin <10 mg, lovastatin <20 mg, pravastatin <40 mg, fluvastatin <40 mg, or pitavastatin <2 mg. Other background lipid-lowering therapies were permitted, including ezetimibe, niacin, bile acid resins, fibrates, and/or proprotein convertase subtilisin kexin type 9 (PCSK9) inhibitors.
(§4) Eligible patients entered a 4-week run-in period during which patients were treated with single-blind placebo. If patients were intolerant to placebo treatment or if adherence was <80% by tablet count, they were not eligible for randomization. Patients who successfully completed the run-in period were randomly assigned in a 1:1 ratio to receive a 180 mg oral dose of bempedoic acid or matching placebo, administered daily. During the trial, LDL cholesterol and hsCRP results were masked. Beginning 6 months after randomization, the central laboratory notified the investigator, who remained blinded to treatment assignment, if the patient's LDL cholesterol level was ≥25% higher than baseline. Repeat testing was performed after the patient was counseled about diet and encouraged to take all medications as prescribed. The patient returned for a repeat fasting blood lipid profile to confirm whether the LDL cholesterol value exceeded the threshold criteria. If confirmed, the patient's treatment regimen for LDL cholesterol lowering could be adjusted, per standard of care and local practice. […]

[2] = system: primary prevention patients unable to tolerate recommended doses of statins; assay: CLEAR OUTCOMES primary prevention subgroup (Example 2): investigator-reported adverse events and safety laboratory findings; type: in vivo
Description: as §1, §2, §3, §4

[3] = primary prevention patients, 180 mg oral daily, N = 2100
[4] = vs placebo, primary prevention, adjusted for baseline characteristics
[5] = vs placebo, primary prevention, adjusted for baseline characteristics, listed as bempedoic acid
[6] = vs placebo, primary prevention, unadjusted
[7] = primary prevention safety population
[8] = primary prevention safety population, N = 2104
[9] = primary prevention, after 6 months
[10] = primary prevention, after 12 months

CC(C)(CCCCCC(O)CCCCCC(C)(C)C(=O)O)C(=O)O [Bempedoic Acid, Bempedoic acid]
3-component MACE, % of patients [1, 3]: 4.0%
3-component MACE, number of patients [1, 3]: 83 number of patients
5-component MACE, % of patients [1, 3]: 5.3%
5-component MACE, number of patients [1, 3]: 112 number of patients
All-cause mortality, % of patients [1, 3]: 3.6%
All-cause mortality, number of patients [1, 3]: 75 number of patients
Cardiovascular death, % of patients [1, 3]: 1.8%
Cardiovascular death, number of patients [1, 3]: 37 number of patients
Coronary revascularization, % of patients [1, 3]: 2.4%
Coronary revascularization, number of patients [1, 3]: 50 number of patients
Fatal and non-fatal MI, % of patients [1, 3]: 1.4%
Fatal and non-fatal MI, number of patients [1, 3]: 29 number of patients
Fatal and non-fatal stroke, % of patients [1, 3]: 1.3%
Fatal and non-fatal stroke, number of patients [1, 3]: 27 number of patients
Hospitalization for unstable angina, % of patients [1, 3]: 0.5%
Hospitalization for unstable angina, number of patients [1, 3]: 10 number of patients
Primary efficacy endpoint (MACE-4), % of patients [1, 3]: 5.3%
Primary efficacy endpoint (MACE-4), number of patients [1, 3]: 111 number of patients
number need to treat (NNT) to prevent one primary composite outcome ([1]; primary prevention patients, 4-component MACE): 43 patients
effect on stroke and coronary revascularization ([1]; primary prevention patients, vs placebo): not significantly reduced
3-component MACE, Hazard Ratio (95% CI), adjusted [1, 4]: 0.64 (0.48-0.84)
5-component MACE, Hazard Ratio (95% CI), adjusted [1, 4]: 0.69 (0.54-0.88)
All-cause mortality, Hazard Ratio (95% CI), adjusted [1, 4]: 0.73 (0.54-0.98)
Cardiovascular death, Hazard Ratio (95% CI), adjusted [1, 4]: 0.61 (0.41-0.92)
Coronary revascularization, Hazard Ratio (95% CI), adjusted [1, 4]: 0.71 and 0.71 (0.49-1.03)
Fatal and non-fatal MI, Hazard Ratio (95% CI), adjusted [1, 4]: 0.61 (0.39-0.98)
Fatal and non-fatal stroke, Hazard Ratio (95% CI), adjusted [1, 4]: 0.76 (0.46-1.26)
Hospitalization for unstable angina, Hazard Ratio (95% CI), adjusted [1, 4]: 0.58 (0.26-1.27)
Primary efficacy endpoint (MACE-4), Hazard Ratio (95% CI), adjusted [1, 4]: 0.70 (0.55-0.89)
3-component MACE, Hazard Ratio (95% CI), adjusted [1, 5]: 0.64
5-component MACE, Hazard Ratio (95% CI), adjusted [1, 5]: 0.69
All-cause mortality, Hazard Ratio (95% CI), adjusted [1, 5]: 0.73
Cardiovascular death, Hazard Ratio (95% CI), adjusted [1, 5]: 0.61
Fatal and non-fatal MI, Hazard Ratio (95% CI), adjusted [1, 5]: 0.61
Fatal and non-fatal stroke, Hazard Ratio (95% CI), adjusted [1, 5]: 0.76
Hospitalization for unstable angina, Hazard Ratio (95% CI), adjusted [1, 5]: 0.58
Primary efficacy endpoint (MACE-4), Hazard Ratio (95% CI), adjusted [1, 5]: 0.70
3-component MACE, Hazard Ratio (95% CI), unadjusted [1, 6]: 0.61 (0.46-0.80)
5-component MACE, Hazard Ratio (95% CI), unadjusted [1, 6]: 0.67 (0.53-0.86)
All-cause mortality, Hazard Ratio (95% CI), unadjusted [1, 6]: 0.69 (0.51-0.92)
Coronary revascularization, Hazard Ratio (95% CI), unadjusted [1, 6]: 0.73 (0.50-1.05)
Death from cardiovascular causes, Hazard Ratio (95% CI), unadjusted [1, 6]: 0.57 (0.38-0.85)
Fatal and non-fatal MI, Hazard Ratio (95% CI), unadjusted [1, 6]: 0.61 (0.38-0.97)
Fatal and non-fatal stroke, Hazard Ratio (95% CI), unadjusted [1, 6]: 0.72 (0.44-1.19)
Hospitalization for unstable angina, Hazard Ratio (95% CI), unadjusted [1, 6]: 0.58 (0.27-1.27)
Primary efficacy endpoint (MACE-4), Hazard Ratio (95% CI), unadjusted [1, 6]: 0.68 (0.53-0.87)
New onset diabetes in patients with pre-diabetes at baseline, % [2, 7]: (8.4) %
New onset diabetes in patients without diabetes at baseline, % [2, 7]: (6.4) %
Adjudicated tendon rupture, % [2, 8]: 1.4%
Adverse event leading to drug discontinuation, % [2, 8]: 9.9%
Any treatment emergent adverse event, % [2, 8]: 84.8%
Atrial fibrillation, % [2, 8]: 2.5%
Cholelithiasis, % [2, 8]: 2.5%
Discontinuation of treatment due to myalgia, % [2, 8]: 1.4%
Elevated hepatic enzymes, % [2, 8]: 4.5%
Gout, % [2, 8]: 2.6%
Hyperuricemia, % [2, 8]: 12.1%
Hypoglycemia, % [2, 8]: 4.9%
Malignancies, % [2, 8]: 4.0%
Muscular disorders, % [2, 8]: 12.8%
Myalgias, % [2, 8]: 4.2%
Neurocognitive disorders, % [2, 8]: 0.4%
Renal impairment, % [2, 8]: 10.3%
Serious treatment emergent adverse event, % [2, 8]: 19.9%
Tendinopathies, % [2, 8]: 1.8%
Change from baseline in creatinine levels, mean (SD) [2, 9]: 0.05 (0.19) mg/dL
Change from baseline in uric acid level, mean (SD) [2, 9]: 0.80 (1.1)^ mg/dL
Patients with creatinine >1.5 mg/dL, % [2, 9]: (3.3%)
Patients with uric acid level >8.5 mg/dL, % [2, 9]: (10.8%)
Change from baseline in glycated hemoglobin level (%), patients with diabetes at baseline [2, 10]: 0.03(0.96) %
Change from baseline in glycated hemoglobin level (%), patients without diabetes at baseline [2, 10]: 0.02(0.26) %
Change from baseline in glycated hemoglobin level (%) ([2]; primary prevention, after 12 months, not a prespecified safety measure): 0.03 (0.79) %
Aspartate aminotransferase level >3 times ULN, % ([2]; primary prevention, at any visit): 3.5%
Creatine kinase levels >10x ULN (single occurrence), % ([2]; primary prevention, at any visit, N = 2104): 0.2%
Alanine aminotransferase level >3 times ULN, % ([2]; primary prevention, at any visit, repeated and confirmed): 2.1%
Worsening hyperglycemia, % ([2]; primary prevention, in patients with diabetes at baseline): (21.6) %
